We go through two compounds from patent US20230088286A1, “USP7 INHIBITOR FOR USE IN THE TREATMENT OF CANCER” (ALMAC DISCOVERY LIMITED, priority 2020, published 2023).

One data set in a line: PPB Fu (r). In kind it is in vitro ADME. Conditions: rat, plasma.
The next data set in a line: LM CLhep (r). The data set is classed as in vitro ADME, rat.
A short description of the next data set: LogD7.4. Conditions: pH 7.4. The data set is classed as physicochemical.
A further data set is described as follows: LM CLhep (m). The data set is classed as in vitro ADME, mouse.
The nature of the next data set: LM CLhep (d). The data set is classed as in vitro ADME, dog.
The next data set concerns the target 3A4 (Homo sapiens, UniProt P08684). As to the kind of experiment: Cyp inhibition 3A4. The data set is classed as in vitro ADME. Conditions: read-out: Cyps: 3A4.
A short description of the next data set: MDCK permeability. In kind it is in vitro ADME. Conditions: dog, MDCK; read-out: MDCK Papp ratio.
In a further data set the test system is MDCK. In words: MDCK permeability. In kind it is in vitro ADME.
A short description of a further data set: Hep CLhep (r). The data set is classed as in vitro ADME, rat.
In another data set the target is 2C9 (Homo sapiens, UniProt P11712). As to the kind of experiment: Cyp inhibition 2C9. In kind it is in vitro ADME. The following applies: read-out: Cyps: 2C9.
Chain of 2C9 (P11712 whole entry): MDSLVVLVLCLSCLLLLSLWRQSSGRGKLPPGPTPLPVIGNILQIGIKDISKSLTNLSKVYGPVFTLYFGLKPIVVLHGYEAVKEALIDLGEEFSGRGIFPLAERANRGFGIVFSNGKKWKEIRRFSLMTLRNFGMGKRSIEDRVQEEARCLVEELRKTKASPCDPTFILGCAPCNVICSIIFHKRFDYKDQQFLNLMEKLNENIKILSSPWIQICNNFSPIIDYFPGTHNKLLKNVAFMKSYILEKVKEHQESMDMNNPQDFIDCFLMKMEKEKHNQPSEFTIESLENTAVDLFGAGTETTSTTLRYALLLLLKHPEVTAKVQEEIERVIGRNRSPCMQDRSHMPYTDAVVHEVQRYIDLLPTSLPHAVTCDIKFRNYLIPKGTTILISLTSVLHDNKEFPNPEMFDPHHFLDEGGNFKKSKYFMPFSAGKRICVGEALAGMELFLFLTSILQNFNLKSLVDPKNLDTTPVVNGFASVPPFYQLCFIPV
In another data set the test system is RS4; 11. As to the kind of experiment: RS4;11 cell EC50. The data set is classed as cell-based. The following applies: Homo sapiens.
A short description of a further data set: PPB Fu (m). In kind it is in vitro ADME. The following applies: mouse, plasma.
The nature of another data set: Hep CLhep (m). The data set is classed as in vitro ADME, mouse.
The target of another data set is USP7 (Homo sapiens, UniProt Q93009). As to the kind of experiment: USP7 FP. The data set is classed as biochemical.
Chain of USP7 (Q93009 whole entry): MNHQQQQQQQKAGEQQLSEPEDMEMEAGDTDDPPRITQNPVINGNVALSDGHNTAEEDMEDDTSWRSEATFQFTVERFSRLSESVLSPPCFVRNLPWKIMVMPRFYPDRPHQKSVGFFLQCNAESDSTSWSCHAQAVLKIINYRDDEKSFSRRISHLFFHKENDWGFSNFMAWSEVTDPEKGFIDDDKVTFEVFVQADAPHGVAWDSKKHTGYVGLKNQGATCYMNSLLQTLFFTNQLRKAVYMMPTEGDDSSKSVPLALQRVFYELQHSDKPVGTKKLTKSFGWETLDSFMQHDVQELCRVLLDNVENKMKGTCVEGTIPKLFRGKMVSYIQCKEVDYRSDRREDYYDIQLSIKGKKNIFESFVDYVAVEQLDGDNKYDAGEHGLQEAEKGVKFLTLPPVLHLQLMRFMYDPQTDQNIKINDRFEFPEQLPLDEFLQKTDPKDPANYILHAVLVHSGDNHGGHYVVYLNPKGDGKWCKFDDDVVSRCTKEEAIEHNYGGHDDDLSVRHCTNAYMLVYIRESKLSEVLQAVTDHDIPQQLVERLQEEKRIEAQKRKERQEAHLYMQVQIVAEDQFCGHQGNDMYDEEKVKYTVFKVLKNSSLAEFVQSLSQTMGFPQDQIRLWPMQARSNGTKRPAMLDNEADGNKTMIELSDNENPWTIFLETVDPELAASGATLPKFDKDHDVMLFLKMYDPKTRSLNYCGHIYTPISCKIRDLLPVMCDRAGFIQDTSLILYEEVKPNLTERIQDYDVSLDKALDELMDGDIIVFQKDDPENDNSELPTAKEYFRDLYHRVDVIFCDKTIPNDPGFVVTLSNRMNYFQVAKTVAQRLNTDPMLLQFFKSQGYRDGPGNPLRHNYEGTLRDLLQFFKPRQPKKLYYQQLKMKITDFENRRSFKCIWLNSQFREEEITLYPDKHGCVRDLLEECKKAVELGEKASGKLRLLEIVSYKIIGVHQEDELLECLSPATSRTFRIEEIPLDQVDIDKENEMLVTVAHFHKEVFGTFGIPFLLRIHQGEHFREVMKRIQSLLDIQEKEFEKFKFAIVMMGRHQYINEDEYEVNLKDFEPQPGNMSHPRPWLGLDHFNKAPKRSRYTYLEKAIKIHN
A short description of a further data set: Oral availability. The data set is classed as in vivo. Conditions: compared to AD-04.
Data set [1] concerns CT-26 cells in BALB/C mice. In words: CT-26 syngeneic tumour model (AD-04 study). How it is done:
FIG. 30: Effect of USP7 on the tumour microenvironment in vivo.
For subcutaneous tumour implantation, CT26 cells were injected subcutaneously (1×10^6cells in 200 μL of RPMI) in the right flank of 8- to 10-week-old BALB/c female mice. […] Tumour volume (in mm^3) was measured twice a week with a digital caliper and calculated by the following formula: volume=(width)^2×length/2. Body weight was measured twice a week. […]

The subject of the next data set is tumour VEGFA mRNA. As to the kind of experiment: RNA-seq of syngeneic CT-26 tumour samples. In kind it is in vivo, mouse. As to the method:
Finally, mode of action of AD-04 in vivo was analysed by RNA-seq. […] Moreover, individual genes within HIF1A pathway were differentially modulated upon USP7 inhibition.

Data set [2] deals with cancer cells, fibroblasts and endothelial cells. In words: Scratch wound cell migration assay. The following applies: any of tested cells. In kind it is cell-based, human. As to the method:
Pictures of wound closure were taken every 2 hours during a 4-day assay using a time-lapse microscope. Charts are displaying the percentage of wound closure over time.
96-well ImageLock plates were coated with 0.1 mg/ml growth factor reduced Matrigel® and incubated for 1 h at 37° C. Cells were seeded a density of 10,000-40,000 cells/well in 100 μL/well and incubated overnight. Next day wounds were simultaneously created in all wells using the WoundMaker. After wounding, media was aspirated from each well and cells were washed twice with PBS. For invasion cells were overlayed with 50 μL of the Matrigel® top layer at 3mg/ml and incubated for 30 min at 37° C. […] Cell plates were placed into the IncuCyte live-cell analysis system and each well imaged using 10× objective every 2 hours for the total of 5-days. Images were analysed using IncuCyte scratch wound protocol and results presented as percentage of wound confluence.

Data set [3] deals with cancer cells, primary and immortalized fibroblasts. In words: Cell proliferation assay (CellTiter-Glo viability). The data set is classed as cell-based, human. How it is done: The functional impact of USP7-mediated decrease in VEGF secretion is not on fibroblast or cancer cell proliferation. […] After 72 hours cell viability was measured by Cell-Titer-Glo. The results were normalized to the control non-treated group (mean±SD, n=3).

“Also recorded” adds a separate entry of the source. Like-named read-outs stand apart in the source and are kept apart here.

Chain of 3A4 (P08684 whole entry): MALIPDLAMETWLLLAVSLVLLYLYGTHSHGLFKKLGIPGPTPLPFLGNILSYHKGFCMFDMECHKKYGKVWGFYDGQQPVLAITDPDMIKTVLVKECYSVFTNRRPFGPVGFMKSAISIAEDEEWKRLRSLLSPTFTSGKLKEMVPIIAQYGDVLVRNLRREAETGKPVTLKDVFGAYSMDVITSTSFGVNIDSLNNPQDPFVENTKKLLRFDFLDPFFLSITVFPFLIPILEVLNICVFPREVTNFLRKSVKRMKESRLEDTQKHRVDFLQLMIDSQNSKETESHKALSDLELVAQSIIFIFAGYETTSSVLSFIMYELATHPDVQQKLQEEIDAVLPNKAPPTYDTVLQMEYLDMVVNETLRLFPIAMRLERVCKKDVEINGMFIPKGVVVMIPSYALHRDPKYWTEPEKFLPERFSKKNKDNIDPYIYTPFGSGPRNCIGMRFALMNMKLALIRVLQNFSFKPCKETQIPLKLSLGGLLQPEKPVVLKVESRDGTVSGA

A word on the fraction unbound: it is free concentration divided by total concentration. Higher therefore signals weak binding. As a reminder, the EC50 is the concentration needed to bring the measured effect to its halfway point. High values mean weaker potency, low ones greater potency. Regarding `CC1(C(=O)N2CCC(O)(Cn3cnc4c(cc(Cl)n4-c4ccc5c(c4)CCO5)c3=O)CC2)CC1` [ADC-159, 6-Chloro-7-(2,3-dihydrobenzofuran-5-yl)-3-((4-hydroxy-1-(1-methylcyclopropane-1-carbonyl)piperidin-4-yl)methyl)-3,7-dihydro-4H-pyrrolo[2,3-d]pyrimidin-4-One], the fraction unbound in the data set “PPB Fu (r)” was found to be 0.12; in “PPB Fu (m)”, 0.1. Also, the “LM CLhep (r)” value in the data set “LM CLhep (r)” is on record as 27. Besides, the LogD7.4 in “LogD7.4” amounted to 2.5. The “LM CLhep (m)” value in “LM CLhep (m)” was determined as 55. Also, the “LM CLhep (d)” value in “LM CLhep (d)” worked out at 22. For the same compound, the IC50 on 3A4 was greater than 20000 nM; at 2C9, 11000 nM; at USP7 (asterisk not explained, read-out: USP7 FP IC50 (value in brackets marked *)), 159 nM; on USP7 (read-out: USP7 FP IC50) it was 386 nM. Moreover, the efflux ratio in “MDCK permeability” is 276. The “MDCK A:B” value with MDCK (A:B) was 0.2. Besides, the “MDCK B:A” value with MDCK (B:A) is 50.1. Further, the “Hep CLhep (r)” value in the data set “Hep CLhep (r)” worked out at 43. In the data set with RS4; 11, this compound displayed an EC50 of 165 nM. The “Hep CLhep (m)” value in “Hep CLhep (m)” amounted to 78. The oral availability result in the data set “Oral availability” is “improved oral availability”.

Consider `C[C@H](CC(=O)N1CCC(O)(Cn2cnc3c(-c4ccc(CN)cc4)n(C)nc3c2=O)CC1)c1ccccc1` [AD-04, (R)-3-(4-(Aminomethyl)phenyl)-6-((4-hydroxy-1-(3-phenylbutanoyl)piperidin-4-yl)methyl)-2-methyl-2H-pyrazolo[4,3-d]pyrimidin-7(6H)-one], for which the tumour growth inhibition in [1] (360 h) came to 53%. Further, in data set [1] (dose-dependent manner), the “growth of CT26 xenografts (tumour volume)” value is “inhibited the growth”. Moreover, in data set [1] (mouse, in vivo), the “tolerability, bodyweight of tumour-bearing mice” value was “no significant bodyweight loss; also recorded: well tolerated”. In the data set on tumour VEGFA mRNA, the “tumour VEGFA long isoform mRNA” value is given as “increase” and the “tumour VEGFA short isoform mRNA” value is given as “decrease”. Moreover, the “migration (scratch wound healing)” value in [2] was “did not modulate migration”. Besides, the “sensitivity of cancer cell lines” value in data set [3] (HT29 and H1299 (data not shown)) was “insensitive”. For the same compound, the “sensitivity of cancer cell lines” value in data set [3] (LNCaP and MCF-7 (data not shown)) was “sensitive”. The cell viability result in data set [3] (high concentration, normoxia and hypoxia, 72 hours) is on record as “do not affect cell viability”.
